These results are taken from US7026313B2, “2-thia-1,6,8-triaza-naphthalene-2,2-dioxides are kinase inhibitors” (Warner-Lambert Company, priority 2002, dated 2006).

By IC50 is commonly meant the concentration that inhibits the measured activity by half.

In test [1] the target is cdk1/cyclin B (Homo sapiens, UniProt P06493). Put plainly: Assay for inhibition of cdk1 (cdk1/cyclin B), 32P filter plate. The class given is biochemical. Conditions: retinoblastoma protein substrate, read-out: CYCK1B IC50. On the procedure:
(§1) Assay for Inhibition of cdk1 and cdk2
(§2) Cdk1 and cdk2 enzyme assays for IC50 determinations and kinetic evaluation were performed as follows. 96-well filter plates (Millipore MADVN6550) were used. The total volume of each well in the assay was 0.1 mL in Buffer A (20 mM TRIS (pH 7.4), 50 mM NaCl, 1 mM dithiothreitol, 10 mM MgCl2), to which was added […] containing 0.25 μCi [^32P]ATP, 20 ng enzyme (cdk2/cyclin E, cdk2/cyclin A, or cdk1/cyclin B), 1 μg retinoblastoma protein, and appropriate dilutions in Buffer A of the particular test compound. Buffer A alone without added test compound was employed as a control for no inhibition. Buffer A containing excess EDTA was used to determine the level of background ^32P in the absence of enzyme activity. All components except the ATP were added to the wells, and the plate was placed on a plate mixer for 2 minutes. The reaction was initiated by addition of [^32P]ATP, and the plate was incubated at 25° C. for 15 minutes. The reaction was terminated by addition of 0.1 mL 20% TCA. The plate was kept at 4° C. for at least 1 hour to allow the substrate to precipitate. The wells were then washed five times with 0.2 mL 10% TCA, and ^32P incorporation was determined with a beta plate counter (Wallac Inc., Gaithersburg, Md.). The IC50 of the test compound was determined using the median effect method (Chou, T-C and Talalay, P. Applications of the median effect principle for the assessment of low-dose risk of carcinogens and for the quantitation of synergism and antagonism of chemotherapeutic agents. In: New Avenues in Developmental Cancer Chemotherapy (Eds. Harrap, K. T. and Connors, T. A.), pp. 37–64. Academic Press, New York, 1987).

Test [2] concerns the target cdk2/cyclin A (Homo sapiens, UniProt P24941). Put plainly: Assay for inhibition of cdk2 (cdk2/cyclin A), 32P filter plate. The test is classed as biochemical. As to conditions: retinoblastoma protein substrate, read-out: CYCK2A IC50. On the procedure:
as §1, §2

For test [3], the target named is cdk2/cyclin E (Homo sapiens, UniProt P24941). The experiment in a line: Assay for inhibition of cdk2 (cdk2/cyclin E), 32P filter plate. The test is classed as biochemical. As to conditions: retinoblastoma protein substrate, read-out: CYCK2E IC50. As to the method:
as §1, §2

Test [4] deals with cdk4/Cyclin D (Homo sapiens, UniProt P11802). Put plainly: Assay for inhibition of cdk4/Cyclin D, 32P filter plate. The class given is biochemical. Conditions: for IC50: cdk4, 25 μM ATP, retinoblastoma protein substrate, read-out: CYCK4 IC50. As to the method:
Assay for Inhibition of cdk4/Cyclin D
The cdk4 enzyme assay for IC50 determination and kinetic evaluation was performed as follows: 96-well filter plates (Millipore MADVN6550) were used. The total volume was 0.1 mL containing a final concentration of buffer A (20 mM TRIS (tris[hydroxymethyl]aminomethane) (pH 7.4), 50 mM NaCl, 1 mM dithiothreitol, 10 mM MgCl2), 25 μM ATP containing 0.25 μCi [^32P]ATP, 20 ng Cdk4, 1 μg retinoblastoma protein, and the test compound at appropriate dilutions in buffer A. Buffer A alone without added test compound was employed as a control for no inhibition. Buffer A containing excess EDTA was used to determine the level of background ^32P in the absence of enzyme activity. All components except the ATP were added to the wells, and the plate was placed on a plate mixer for 2 minutes. The reaction was started by adding [^32P]ATP, and the plate was incubated at 25° C. for 15 minutes. The reaction was terminated by addition of 0.1 mL 20% trichloroacetic acid (TCA). The plate was kept at 4° C. for at least 1 hour to allow the substrate to precipitate. The wells were then washed five times with 0.2 mL 10% TCA, and ^32P incorporation was determined with a beta plate counter (Wallac Inc., Gaithersburg, Md.).

In test [5] the target is T1, human FGF1(flg) receptor tyrosine kinase (Homo sapiens, UniProt P11362).
T1 construct: amplify a fragment of DNA that codes for the intracellular tyrosine kinase domain; made in house; host or cells: SF9 insect cells (baculovirus); crude cell lysate used
The experiment in a line: FGF receptor (FGFr) tyrosine kinase assay. Conditions: FGFr enzyme lysate, Poly (4:1) glutamate-tyrosine substrate. The test is classed as biochemical. From the text:
(§3) For PDGF receptor (PDGFr) and FGF receptor (FGFr) tyrosine kinase assays, full-length cDNAs for the mouse PDGF-β and human FGF1(flg) receptor tyrosine kinases were obtained from J. Escobedo and prepared as described previously (Escobedo et al., J. Biol. Chem., 1988;262:1482–1487). PCR primers were designed to amplify a fragment of DNA that codes for the intracellular tyrosine kinase domain. The fragment was inserted into a baculovirus vector, cotransfected with AcMNPV DNA, and the recombinant virus was isolated. SF9 insect cells are infected with the virus to overexpress the protein, and the cell lysate was used for the assay.
(§4) PDGFr and FGFr enzyme assays were performed in 96-well plates (100 μL/incubation/well), and conditions were optimized to measure the incorporation of ^32P from [γ^32P]ATP into a glutamate-tyrosine co-polymer substrate. Briefly, to each well was added 82.5 μL incubation buffer containing 25 mM Hepes (pH 7.0), 150 mM NaCl, 0.1% Triton X-100, 0.2 mM PMSF, 0.2 mM Na3VO4, 10 mM MnCl2, and 750 μg/mL Poly (4:1) glutamate-tyrosine followed by 2.5 μL inhibitor and 5 μL enzyme lysate (7.5 μg/μL FGFr or 6.0 μg/μL PDGFr) to initiate the reaction. Following a 10-minute incubation at 25° C., […] [γ^32P]ATP (0.4 μCi plus 50 μM ATP) was added to each well, and samples were incubated for an additional 10 minutes at 25° C. The reaction was terminated by the addition of 100 μL 30% trichloroacetic acid (TCA) containing 20 mM sodium pyrophosphate and precipitation of material onto glass fiber mats (Wallac). Filters were washed three times with 15% TCA containing 100 mM sodium pyrophosphate, and the radioactivity retained on the filters was counted in a Wallac 1250 Betaplate reader. Nonspecific activity was defined as radioactivity retained on the filters following incubation of samples with buffer alone (no enzyme). Specific enzymatic activity (enzyme plus buffer) was defined as total activity minus nonspecific activity. The concentration of a compound that inhibited specific activity by 50% (IC50) was determined based on the inhibition curve.

Test [6] deals with T2, mouse PDGF-β receptor tyrosine kinase (Mus musculus, UniProt P05622).
T2 construct: amplify a fragment of DNA that codes for the intracellular tyrosine kinase domain; made in house; host or cells: SF9 insect cells (baculovirus); crude cell lysate used
Put plainly: PDGF receptor (PDGFr) tyrosine kinase assay. The class given is biochemical. Conditions: PDGFr enzyme lysate, Poly (4:1) glutamate-tyrosine substrate.
Text: as §3, §4

Test [7] relates to neointima formation. As to conditions: intraluminal exposure of a denuded rat carotid artery; cited from earlier work.
The subject of test [8] is herpes simplex virus (HSV). As to conditions: related art (Schang et al.); cited from earlier work.

A value given as a limit tells only on which side of the number the result lay.

T1 sequence (P11362 478-767 limits assumed): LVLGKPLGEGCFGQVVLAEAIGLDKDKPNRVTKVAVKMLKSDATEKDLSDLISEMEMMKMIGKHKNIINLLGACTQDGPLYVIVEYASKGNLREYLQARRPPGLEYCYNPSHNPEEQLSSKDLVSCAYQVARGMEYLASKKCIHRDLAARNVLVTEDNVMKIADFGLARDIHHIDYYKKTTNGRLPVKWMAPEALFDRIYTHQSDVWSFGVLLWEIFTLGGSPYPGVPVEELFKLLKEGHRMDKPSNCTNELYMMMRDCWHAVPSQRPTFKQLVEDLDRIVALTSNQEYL
Sequence of cdk1/cyclin B (P06493 whole entry, species assumed): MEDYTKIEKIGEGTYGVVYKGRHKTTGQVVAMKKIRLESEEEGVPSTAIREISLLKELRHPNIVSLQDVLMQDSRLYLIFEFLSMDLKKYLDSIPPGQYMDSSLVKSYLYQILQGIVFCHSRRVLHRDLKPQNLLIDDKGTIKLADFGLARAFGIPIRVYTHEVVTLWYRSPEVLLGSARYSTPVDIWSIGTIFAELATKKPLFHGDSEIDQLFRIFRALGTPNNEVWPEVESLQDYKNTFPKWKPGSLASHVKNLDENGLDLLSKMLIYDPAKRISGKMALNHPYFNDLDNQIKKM
Sequence of cdk1/cyclin B (P14635 whole entry partner, species assumed): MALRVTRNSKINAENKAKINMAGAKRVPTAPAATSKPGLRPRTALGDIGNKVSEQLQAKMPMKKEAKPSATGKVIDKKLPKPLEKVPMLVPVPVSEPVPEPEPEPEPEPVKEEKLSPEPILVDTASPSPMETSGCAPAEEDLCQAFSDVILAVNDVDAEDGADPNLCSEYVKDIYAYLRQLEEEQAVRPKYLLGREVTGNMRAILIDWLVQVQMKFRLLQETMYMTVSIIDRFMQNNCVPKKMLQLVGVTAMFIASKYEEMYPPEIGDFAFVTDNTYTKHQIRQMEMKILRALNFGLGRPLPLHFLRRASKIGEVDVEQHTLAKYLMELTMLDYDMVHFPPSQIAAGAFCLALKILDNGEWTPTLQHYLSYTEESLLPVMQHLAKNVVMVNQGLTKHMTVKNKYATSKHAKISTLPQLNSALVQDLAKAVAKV
Sequence of cdk4/Cyclin D (P11802 whole entry, species assumed): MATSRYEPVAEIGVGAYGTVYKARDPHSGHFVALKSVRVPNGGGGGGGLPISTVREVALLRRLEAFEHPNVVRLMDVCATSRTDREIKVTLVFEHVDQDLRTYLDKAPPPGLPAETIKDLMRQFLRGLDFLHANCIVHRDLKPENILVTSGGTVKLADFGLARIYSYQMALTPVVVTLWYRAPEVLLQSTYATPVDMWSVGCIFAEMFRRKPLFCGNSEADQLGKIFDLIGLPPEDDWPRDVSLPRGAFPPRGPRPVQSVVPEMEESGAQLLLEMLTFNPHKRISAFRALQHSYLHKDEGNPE
Sequence of cdk4/Cyclin D (P24385 whole entry partner, species assumed): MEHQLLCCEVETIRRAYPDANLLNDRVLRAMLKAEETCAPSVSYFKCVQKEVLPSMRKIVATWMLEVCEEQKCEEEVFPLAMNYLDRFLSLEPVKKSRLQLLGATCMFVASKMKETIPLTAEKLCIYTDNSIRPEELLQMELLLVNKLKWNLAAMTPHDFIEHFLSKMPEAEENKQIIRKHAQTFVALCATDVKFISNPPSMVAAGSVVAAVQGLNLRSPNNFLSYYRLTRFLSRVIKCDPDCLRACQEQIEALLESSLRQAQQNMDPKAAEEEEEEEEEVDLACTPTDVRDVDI
T2 sequence (P05622 599-961 limits assumed): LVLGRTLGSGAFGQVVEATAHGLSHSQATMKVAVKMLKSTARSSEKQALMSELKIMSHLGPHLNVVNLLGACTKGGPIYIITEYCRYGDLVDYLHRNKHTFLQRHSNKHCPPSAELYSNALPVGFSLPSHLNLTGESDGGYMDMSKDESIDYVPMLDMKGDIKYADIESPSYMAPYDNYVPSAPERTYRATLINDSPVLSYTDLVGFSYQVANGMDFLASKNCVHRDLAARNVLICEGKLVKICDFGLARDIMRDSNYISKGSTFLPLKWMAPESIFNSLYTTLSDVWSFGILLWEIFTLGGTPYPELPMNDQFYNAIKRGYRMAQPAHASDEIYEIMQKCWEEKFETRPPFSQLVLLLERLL

Take `O=S1(=O)C=Cc2cnc(Nc3ccc(N4CCNCC4)cc3)nc2N1C1CCCC1` [Compound 4, (1-Cyclopentyl-2,2-dioxo-1,2-dihydro-2l^6-thia-1,6,8-triaza-naphthalen-7-yl)-(4-piperazin-1-yl-phenyl)-amine]: the IC50 in test [1] was found to be 360 nM; in test [2] it was 106 nM; in test [3] it was 145 nM; in test [4], 5 nM; in test [5], 179 nM; in test [6], 1070 nM. For the same compound, in test [4] (conclusion from Table 2), the “selectivity for Cdk4 over cdk1, cdk2, FGF and PDGF” value is on record as “specifically inhibits Cdk4”.
Take `COc1ccc(CNc2nc(N(CCO)CCO)nc3c2ncn3C(C)C)cc1` [CVT-313]: the “inhibition of neointima formation” value in test [7] was “greater than 80%”.
With `CC1(C)CN(c2ccc(Nc3ncc4c(n3)N(C3CCCC3)S(=O)(=O)C=C4)cc2)CCN1` [Compound 6, (1-Cyclopentyl-2,2-dioxo-1,2-dihydro-2l^6-thia-1,6,8-triaza-naphthalen-7-yl)-[4-(3,3-dimethyl-piperazin-1-yl)-phenyl]-amine], the IC50 in test [1] is 3600 nM; in test [2], 294 nM; in test [3], 600 nM; in test [4] it was 1.3 nM.
On to `CC1=Cc2cnc(Nc3ccc(N4CCNCC4)cc3)nc2N(C2CCCC2)S1(=O)=O` [Compound 10, (1-Cyclopentyl-3-methyl-2,2-dioxo-1,2-dihydro-2l^6-thia-1,6,8-triaza-naphthalen-7-yl)-(4-piperazin-1-yl-phenyl)-amine], for which the IC50 in test [1] was determined as 36000 nM; in test [2], 5450 nM; in test [3], 26000 nM; in test [4], 93 nM; in test [5], 575 nM; in test [6], 290 nM.
As to `CC[C@H](CO)Nc1nc(NCc2ccccc2)c2ncn(C(C)C)c2n1` [roscovitine], in test [8], the HSV replication entry was “inhibited”.
Turning to `O=S1(=O)CCc2cnc(Nc3ccc(N4CCNCC4)cc3)nc2N1C1CCCC1` [Compound 16, (1-Cyclopentyl-2,2-dioxo-1,2,3,4-tetrahydro-2l^6-thia-1,6,8-triaza-naphthalen-7-yl)-(4-piperazin-1-yl-phenyl)-amine], the IC50 was determined as 4140 nM in test [1], 930 nM in test [2], 930 nM in test [3] and 45 nM in test [4].
`CCC1=Cc2cnc(Nc3ccc(N4CCNCC4)cc3)nc2N(C2CCCC2)S1(=O)=O` [Compound 14, (1-Cyclopentyl-3-ethyl-2,2-dioxo-1,2-dihydro-2l^6-thia-1,6,8-triaza-naphthalen-7-yl)-(4-piperazin-1-yl-phenyl)-amine]: the IC50 in test [2] was 4000 nM; in test [3], above 5000 nM; in test [4] it was 50 nM; in test [5], 1030 nM; in test [6], 216 nM.
